Assays:
[1] = test system: subjects with idiopathic PD with LIDs
Protocol: At the time the study was performed (2009), there was no FDA accepted instrument for measuring treatment efficacy for LIDs. Therefore, several secondary objectives were utilized to assess efficacy including the Unified Dyskinesia Rating Scale (UDysRS).

[2] = test system: subjects with idiopathic PD with LIDs; remark: listed apart in the source
Text: (§1) This post hoc analysis was inclusive of patients having baseline scores of […] for each of UPDRS Part II Question 13, Part II Question 14, and Part III Item 30.
(§2) The original UPDRS scale was used. […] In the UPDRS Part II, Question 13 is on Falling unrelated to Freezing. […] In Part II, Question 14 is on Freezing when Walking. This is a 5-point item and has two variables freezing and falls. […] Questions 13 and 14 were compared separately (Table 11).
(§3) This post hoc analysis was inclusive of patients having screening and/or baseline scores of greater than 0 for each of UPDRS Part II Question 13, Part II Question 14, and Part III Item 30.

[3] = test system: subjects with idiopathic PD with LIDs; remark: listed apart in the source
Text: as §2
The efficacy variables for LIDs were the mean change from baseline to week 10 in the UDysRS total score; UDysRS sub-scores (Table 12). An analysis of covariance (ANCOVA) combined features of regression and analysis of variance (ANOVA). In addition to the descriptive summary of each variable from baseline to endpoint, Least Square (LS) means standard errors and 95% Confidence intervals (CI) of each group, and the difference of LS means between the 2 treatment groups and its 95% CI are presented. A similar analysis was applied to comparisons between UPDRS Part II, UPDRS Part III.

[4] = test system: subjects with idiopathic PD with LIDs; remark: listed apart in the source
Text: as §1, §2
(§4) For falls (UPDRS Part II, Question 13), a 5-point scale was used: 0: No falls to 4: falls more than once per day. For FOG and falls related to FOG (Question 14), a 5-point scale was used: 0: No FOG to 3 or 4: frequent falls from FOG. […] Analysis utilized Fisher's exact 2-tailed test. Improvement or worsening over baseline was calculated from the last treatment visit (Table 11).
as §3
Question 13—Falling Unrelated to Freezing • 0=None; • 1=Rare falling; • 2=Occasionally falls, less than once per day; • 3=Falls an average of once daily; • 4=Falls more than once daily.
(§5) For the purposes of this alternative post hoc analysis, only patients having a screening or baseline score of 2 or more, i.e., occasional freezing when walking or occasional falls, less than once per day, were considered to have experienced episodes of freezing and/or falling. Additionally, scores of patients with a screening or baseline score of 1 were set to 0, i.e., no freezing when walking or no falls. All patients were included in the analysis regardless of their status during the study, with the last observation carried forward.

[5] = test system: subjects with idiopathic PD with LIDs; remark: listed apart in the source
Text: as §1, §2, §4
Question 14—Freezing of Walking • 0=None; • 1=Rare freezing when walking, may have start hesitation; • 2=Occasional freezing when walking; • 3=Frequent freezing, occasionally falls from freezing; • 4=Frequent falls from freezing.
as §5

[6] = oral capsules
[7] = baseline to week 10, of 30 patients
[8] = baseline to week 10, of 30 patients, negative = improvement
[9] = of 30 patients, p=0.004 vs placebo

## CN1CCCC1c1cccnc1.O=C(O)C(O)C(O)C(=O)O (stereo not drawn) [NP002, Nicotine Bitartrate]
[1]; Visit 4 (Week 10), p=0.0048 vs placebo
  PGI-C responders (score of 1, 2, or 3): 21 (77.8%)
[1]; Visit 4 (Week 10), p=0.0453
  LF-ADL responders (>25% reduction from baseline), vs placebo: statistically significant difference between treatment groups
[1]; in vivo
  patient- and physician-rated assessments of efficacy vs placebo: superior to placebo on ALL patient- and physician-rated assessments of efficacy
[2]; [7]
  Pull Test (Item 30): patients with No Change: 19
  Pull Test (Item 30): patients with change +1: 1
  Pull Test (Item 30): patients with change +2: 0
  Pull Test (Item 30): patients with change +3: 0
  Pull Test (Item 30): patients with change −1: 5
  Pull Test (Item 30): patients with change −2: 5
[2]; [8]
  Pull Test (Item 30): patients with change −3: 0
[2]; patients with screening and/or baseline score >0, p=0.054 vs placebo
  patients with improvement in postural stability (pull test): 9 of 24
[3]; NP002 versus placebo, p 0.337
  Difference in LS Means, UPDRS Part III: −18.3 ± 1.8
[3]; NP002 versus placebo, p 0.631
  Difference in LS Means, UPDRS Part II: 10.1 ± 0.96
[3]; baseline to 10 weeks
  UPDRS II Change: 2.8 ± 5.2
  UPDRS III Change: 2.0 ± 7.5
[3]; before treatment, n=35
  UPDRS II at Baseline: 13.1 ± 6.0
  UPDRS III at Baseline: 20.0 ± 8.8
[3]; n=30
  UPDRS II at 10 Weeks: 10.1 ± 5.3
  UPDRS III at 10 Weeks: 17.3 ± 10.6
[3]; p>0.34
  UPDRS Part II and Part III after treatment vs placebo: no significant differences
[4]; Question 13 score of 2 or greater at screening or baseline, Wilcoxon-Mann-Whitney p=0.3250
  falling vs placebo at week 10: directional signal towards reduced falling
[4]; active phase of the study
  patients with either a reduction or absence of falls: ~87%
[4]; [7]
  Falls (Question 13): patients with No Change: 15
  Falls (Question 13): patients with change +1: 1
  Falls (Question 13): patients with change +2: 0
  Falls (Question 13): patients with change +3: 0
  Falls (Question 13): patients with change −1: 7
  Falls (Question 13): patients with change −2: 5
[4]; [8]
  Falls (Question 13): patients with change −3: 2
[4]; number of 30 patients
  patients with no falls during the study: 12
[4]; [9]
  patients with a reduction in falls: 47%
[4]; score >0 at screening/baseline, Fisher's exact test p=0.057
  improvement in falling vs placebo at week 10: statistically significant improvement in falling
[4]; screening and/or baseline score >0, follow-up to visit 3 or 4
  patients who reported fewer falls (UPDRS Part II, Question 13): 14 of 15
[5]; Question 14 score of 2 or greater at screening or baseline, Cochran-Mantel-Haenszel p=0.0476
  improvement in freezing vs placebo at week 10: statistically significant improvement in freezing
[5]; active phase of the study
  patients with either a reduction or absence of FOG: ~73%
[5]; [7]
  FOG (Question 14): patients with No Change: 17
  FOG (Question 14): patients with change +1: 1
  FOG (Question 14): patients with change +2: 0
  FOG (Question 14): patients with change +3: 0
  FOG (Question 14): patients with change −1: 10
  FOG (Question 14): patients with change −2: 2
[5]; [8]
  FOG (Question 14): patients with change −3: 0
[5]; number of 30 patients
  patients with no FOG during the study: 10
[5]; [9]
  patients with a reduction in FOG: 40%
[6]
  time until plasma concentration of nicotine returns close to baseline: approximately 6 hours

Reference: patent US20190307740A1, “COMPOSITIONS AND METHODS FOR TREATMENT RELATED TO FALL AND FALL FREQUENCY IN NEURODEGENERATIVE DISEASES” (Neurocea, LLC, priority 2016, published 2019)
